A short description of this data set: Diuretic activity was determined. In kind it is ADME, tissue-based, Urine. The arrangement: reference not given here.
Regarding `COc1ccc(S(N)(=O)=O)cc1`, the pC is 0.188.

Regarding `N#Cc1ccc(S(N)(=O)=O)cc1`, the pC came to 1.

`Cc1cccc(S(N)(=O)=O)c1`: the pC is 0.176.

In turn, `NS(=O)(=O)c1ccccc1Cl` returned a pC of 0.301.

The compound `NS(=O)(=O)c1cccc([N+](=O)[O-])c1` showed a pC of 0.678.

`NS(=O)(=O)c1ccccc1[N+](=O)[O-]` gave a pC of 0.301.

Consider `Nc1ccc(S(N)(=O)=O)cc1` [SULFANILAMIDE], for which the pC is recorded as -0.301.

`CC(=O)c1ccc(S(N)(=O)=O)cc1` gave a pC of 0.398.

For the compound `NS(=O)(=O)c1ccc(Cl)cc1` [P-CHLOROBENZENESULFONAMIDE], the pC came out at 0.286.

In the case of `Cc1ccccc1S(N)(=O)=O`, the pC was 0.301.

The compound `NS(=O)(=O)c1ccccc1` [BENZENESULFONAMIDE] came in with a pC of 0.13.

As to `NS(=O)(=O)c1ccc(Br)cc1`, the pC was 0.267.

Compound `NS(=O)(=O)c1ccc(Cl)c(Cl)c1` showed a pC of 0.243.

In turn, `Cc1ccc(S(N)(=O)=O)cc1` [P-TOLUENESULFONAMIDE] showed a pC of 0.182.

`NS(=O)(=O)c1ccc([N+](=O)[O-])cc1` had a pC of 0.824.

As to `NS(=O)(=O)c1ccc([N+](=O)[O-])c(C(F)(F)F)c1`, the pC amounted to 0.58.

`NS(=O)(=O)c1cccc(Cl)c1` showed a pC of 0.292.

`NS(=O)(=O)c1ccc(Cl)c([N+](=O)[O-])c1` gave a pC of 0.322.

`CNc1ccc(S(N)(=O)=O)cc1`: the pC is given as -0.036.
